Experimental findings from ChEMBL document CHEMBL4385620, “Inhibition of polypeptide N-acetyl-α-galactosaminyltransferases is an underlying mechanism of dietary polyphenols preventing colorectal tumorigenesis” (Bioorg Med Chem, 2019) are described below.

In series [1] the test system is HT-29. Briefly: Effect on ppGalNAcT2 expression level in human HT-29 cells at 40 uM incubated for 48 hrs by Western blot analysis. The class given is ADME, cell-based. The following applies: ht-29, 48 h.
Series [2] relates to HT-29. Briefly: Effect on ppGalNAcT14 expression level in human HT-29 cells at 40 uM incubated for 48 hrs by Q-PCR analysis. The class given is ADME, cell-based. As to conditions: ht-29, 48 h.
The subject of series [3] is HT-29. Briefly: Effect on ppGalNAcT6 expression level in human HT-29 cells at 40 uM incubated for 48 hrs by Q-PCR analysis. Type of series: ADME, cell-based. The following applies: ht-29, 48 h.
The subject of series [4] is HT-29. Briefly: Effect on ppGalNAcT4 expression level in human HT-29 cells at 40 uM incubated for 48 hrs by Q-PCR analysis. Type of series: ADME, cell-based. As to conditions: ht-29, 48 h.
For series [5], the system named is HT-29. Description: Effect on ppGalNAcT16 expression level in human HT-29 cells at 40 uM incubated for 48 hrs by Q-PCR analysis. Type of series: ADME, cell-based. The following applies: ht-29, 48 h.
In series [6] the test system is HT-29. Description: Effect on ppGalNAcT12 expression level in human HT-29 cells at 40 uM incubated for 48 hrs by Q-PCR analysis. Type of series: ADME, cell-based. As to conditions: ht-29, 48 h.
In series [7] the target is T1, Polypeptide N-acetylgalactosaminyltransferase 10 (Homo sapiens, UniProt Q86SR1).
T1 sequence (Q86SR1 whole entry): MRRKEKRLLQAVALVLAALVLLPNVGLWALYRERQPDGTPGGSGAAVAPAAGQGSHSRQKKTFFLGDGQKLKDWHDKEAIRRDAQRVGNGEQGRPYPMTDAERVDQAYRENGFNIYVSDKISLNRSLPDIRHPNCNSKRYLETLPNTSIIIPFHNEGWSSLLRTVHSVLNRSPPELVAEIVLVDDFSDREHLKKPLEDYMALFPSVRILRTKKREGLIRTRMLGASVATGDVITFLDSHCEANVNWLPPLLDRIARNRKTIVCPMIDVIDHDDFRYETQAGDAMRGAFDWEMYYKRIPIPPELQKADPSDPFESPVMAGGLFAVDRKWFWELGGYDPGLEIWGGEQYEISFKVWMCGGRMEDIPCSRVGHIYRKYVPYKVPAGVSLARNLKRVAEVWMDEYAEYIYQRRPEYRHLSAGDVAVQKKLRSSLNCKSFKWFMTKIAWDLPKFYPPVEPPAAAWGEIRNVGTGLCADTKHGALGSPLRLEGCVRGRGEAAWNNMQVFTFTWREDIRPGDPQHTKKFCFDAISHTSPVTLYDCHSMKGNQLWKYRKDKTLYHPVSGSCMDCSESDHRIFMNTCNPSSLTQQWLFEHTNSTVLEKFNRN
Description: Inhibition of catalytic activity of ppGalNAcT10 (unknown origin) using EA2 peptide as substrate incubated for 30 mins by HPLC-based enzyme assay.

Structures are written as SMILES. pIC50: −log10 of the molar value.

In general, pIC50 refers to the negative decadic logarithm of the IC50, by convention in mol/L. Lower therefore signals a large IC50. With `O=c1oc2c(O)c(O)ccc2c2cc(O)c(O)cc12`, the Activity entry in series [1], in series [2], in series [3], in series [4], in series [5] and in series [6] was “Non-Toxic” in each case. In series [7], this compound had a pIC50 of 6.48.
